Assays:
Saccharomycetes D4 = experiment: Mitotic conversion test; assay type: cell-based
patients = experiment: Clinical trials: tolerability, adverse events and suspensions of treatment; assay type: in vivo, man; details: in vivo
Description: Interest in the amtolmetin guacyl molecule arose following a thorough analysis of the results of 31 comparative and 6 non-comparative clinical trials involving 1596 patients. […] Turthermore the physician, being aware of administering an NSAID, was expecting adverse events and could not be expected to be an impartial observer. The few cases of gastro-intestinal phenomena reported with amtolmetin guacyl were transitory and in no event accompanied by the presence of occult blood in the stools. Moreover, even in the presence of a reported side-effect it was almost never necessary to suspend treatment (0.4% of suspensions).
Following are summarized the results obtained on a total of 1596 patients in 37 clinical trials.
Confirmation of the above described advantages is the very low incidence of treatment suspension for adverse events found in clinics (Table 17), which is not the case for most of NSAIDs known in the art (Table 18).

rat bone marrow = experiment: Micronucleus test; details: in vivo
Rats [1] = experiment: Diuresis in normally hydrated rats; assay type: in vivo
Protocol: In the course of various studies conducted on animals to show the lack of renal impairment, a test was carried out to compare the diuresis in normally hydrated rats treated orally for 8 consecutive days with amtolmeting guacyl and diclofenac, which is also a NSAID. […] It is to be stressed that the behaviour of diclofenac is completely in line with the behaviour of a NSAID as known in the art, that is to say to markedly reduce the diuresis, while that of amtolmeting guacyl is completely unforeseeable.
Repeated doses (one per day) for 8 days increased diuresis in the treated rats by 35% (see fig. 13).

Salmonella Typhimurium = assay type: cell-based
post-operative pain = experiment: Clinical trials in post-operative pain; assay type: in vivo, man
Protocol: As reported in Table 14, the analgesic properties of amtolmetin guacyl were tested in postoperative pain with good results. […] The peak effect is obtained only after 2 hours, and it is maintained for 6 hours.

rabbit = experiment: Fertility, embryotoxicity and teratogenicity studies; assay type: in vivo
[2] = test system: gastric bicarbonate secretion; experiment: Gastric bicarbonate secretion after stimulation with histamine; assay type: in vivo, rat; details: fig. 6
[3] = test system: extra-articular rheumatism; experiment: Clinical trials in extra-articular rheumatism; assay type: in vivo, man; details: 90 patients, 14 days; versus diclofenac, naproxen, piperazine propionate
Description: In extra-articular rheumatism amtolmetin guacyl was compared with diclofenac, naproxen and piperazine propionate.

COX2 (cyclooxygenase 2) = target: T1, COX2 (cyclooxygenase 2) (Rattus norvegicus, UniProt P35355); experiment: Pharmacological studies in rats: cyclooxygenase inhibition; details: in vivo
T1 construct: the pharmacological studies conducted in rats; from tissue; host or cells: rat (in vivo; tissue not given)
T1 sequence (P35355 18-604): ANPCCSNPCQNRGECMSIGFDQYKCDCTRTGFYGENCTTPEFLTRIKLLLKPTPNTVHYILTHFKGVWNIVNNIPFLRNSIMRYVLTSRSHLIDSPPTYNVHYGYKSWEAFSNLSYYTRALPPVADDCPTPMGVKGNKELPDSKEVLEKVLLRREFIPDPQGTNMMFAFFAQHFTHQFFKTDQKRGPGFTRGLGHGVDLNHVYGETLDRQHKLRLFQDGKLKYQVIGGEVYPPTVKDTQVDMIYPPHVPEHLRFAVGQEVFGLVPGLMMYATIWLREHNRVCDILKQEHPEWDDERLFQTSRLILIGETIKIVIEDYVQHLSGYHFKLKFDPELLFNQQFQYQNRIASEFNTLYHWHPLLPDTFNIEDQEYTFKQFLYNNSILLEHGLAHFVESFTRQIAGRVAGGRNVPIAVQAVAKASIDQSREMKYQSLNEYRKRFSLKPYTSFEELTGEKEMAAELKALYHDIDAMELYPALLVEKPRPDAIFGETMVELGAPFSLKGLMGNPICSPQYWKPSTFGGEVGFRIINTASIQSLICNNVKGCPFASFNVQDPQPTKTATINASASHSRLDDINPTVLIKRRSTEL

gastric mucosa = experiment: Gastroprotective action in vivo with an H1 receptor inhibitor; parameters: species or system rat; details: in the presence of an inhibitor of H1 receptors, fig. 17 and 18
Description: In the in vivo experimentation, evaluated as effect of the product both on gastric mucosal secretion and on the healthy condition of the mucosa itself, it was noted that in the presence of an inhibitor of H1 receptors (therefore a typical antihistamine agent), the gastroprotective effect of amtolmetin guacyl drops out. […] All of this constitutes a precise forewarning of the association of amtolmetin guacyl with H1 receptor inhibiting substances on pain of loss of the gastroprotective properties of the former (fig. 17 and 18).

Acute toxicity studies = details: in vivo
[4] = test system: post-traumatic arthralgia; experiment: Clinical comparison in post-traumatic arthralgia; assay type: in vivo, man
Description: The same can be said in the treatment of post-traumatic arthralgia.

Rats [5] = experiment: Carrageenan pleurisy, exudate volume at 4 hours; assay type: in vivo; details: for Exudate volume: 4 hour; for decrease exudate volume: compared to gum tragacanth control
Protocol: Compounds were administered orally 1 hour prior to and 1 hour post pleurisy induction in a volume of 0.5 ml 1% gum tragacanth. Indomethacin was used at 3 mg/kg. MED 15 was used at 25, 50 and 100 mg/kg.
A 1% solution of carrageenan in sterile saline was prepared. The solution was placed in an incubator at 37°C for half an hour to allow complete hydration of the carrageenan. The solution was then mixed to homogeneity.
A 21Gx40mm syringe needle was reduced in length to 5mm and fitted to a 1ml syringe containing the irritant. Rats were lightly anaesthetised with halothane. Each animal was placed on its left side. The skin over the thorax was lifted with and a 1cm incision made through the skin with a pair of scissors. The wound was opened to expose the underlying muscle. Using a scalpel, a 2-3mm incision was made into the muscle of the 5th-6th intercostal space. A volume of 0.15ml of carrageenan solution was then injected into the pleural cavity. The wound was closed with a 11mm Michel clip and the animal allowed to recover from the anaesthetic. Groups of animals were killed 4 hours after pleurisy induction.
Lavage solution: One part of 3.15% trisodium citrate solution, mixed with nine parts of Hank's balanced salt solution.
Rats were killed by over exposure to carbon dioxide. For each rat the skin over the thorax was moistened with IMS alcohol. The skin over the sternum was then lifted and a 5cm cut made, to expose the musculature of the upper abdomen and thoracic cavity. The muscle overlying the xiphisternum was lifted with tissue forceps and a 1cm cut made through the muscle to reveal the cartilage. This was then lifted and the diaphragm perforated just beneath the cartilage. Two cuts were then made through the rib cage either side of the cartilage to form a flap which could be folded back to expose the thoracic cavity.
Using a syringe, 1ml of lavage fluid was introduced into the thoracic cavity. The fluid was aspirated 2-3 times with a 3ml pastette to wash the cavity, before being collected into separate 10ml conical-based plastic test-tubes. Any blood contaminated fluids were rejected.
The mass of each tube with fluid was determined. By subtracting the mass of an empty tube from these values, and assuming a density for the fluid of 1g/cm^3, the fluid volume was quantified.
Results were analysed by ANOVA followed by Bonferroni T-test. Values of p<0.05 were considered significant.
Dosing was one hour prior to and one hour post pleurisy induction and inflammation was assessed at 4 hours.

Question: For `COc1ccccc1OC(=O)CNC(=O)Cc1ccc(C(=O)c2ccc(C)cc2)n1C` [MED 15, 2-methoxyphenyl-1-methyl-5p-methylbenzoylpyrrol-2-acetamido acetate], which mitotic conversion (Saccharomycetes D4) is on record?
Answer: The mitotic conversion was “absence of amtolmetin guacyl-related damage”.

Question: What about the Treatment suspended (patients; human) of the same compound?
Answer: The Treatment suspended was 4.

Question: And the “incidence of adverse events involving the stomach” value (patients; human)?
Answer: The value was about 5%.

Question: And the “reports of gastric discomfort” value (patients; human)?
Answer: Its value is 4%.

Question: And the Treatment suspended (patients; human, 10 days)?
Answer: The Treatment suspended was 3.

Question: What about the Treatment suspended % (patients; human, 10 days) of the same compound?
Answer: The Treatment suspended % was 1,6%.

Question: And the Treatment suspended (patients; human, 21 days)?
Answer: Its Treatment suspended is 0.

Question: And the Treatment suspended (patients; human, 30 days)?
Answer: The Treatment suspended was 1.

Question: What about the Treatment suspended % (patients; human, 30 days) of the same compound?
Answer: Its Treatment suspended % is 0,7%.

Question: And the Treatment suspended (patients; human, 60 days)?
Answer: The Treatment suspended was 0.

Question: And the Treatment suspended (patients; human, 90 days)?
Answer: The Treatment suspended was 0.

Question: What about the Treatment suspended (patients; human, 120 days) of the same compound?
Answer: Its Treatment suspended is 0.

Question: And the Treatment suspended (patients; human, 150 days)?
Answer: The Treatment suspended was 0.

Question: And the Treatment suspended (patients; human, 180 days)?
Answer: Its Treatment suspended is 0.

Question: And the gastric lesions (patients)?
Answer: The gastric lesions was “not to induce gastric lesions”.

Question: What about the “variations of the routine biological parameters” value (patients) of the same compound?
Answer: The value was “no significant variations”.

Question: What about the micronucleus test (rat bone marrow) of the same compound?
Answer: Its micronucleus test is “absence of amtolmetin guacyl-related damage”.

Question: And the increased diuresis (Rats [1]; repeated doses (one per day) for 8 days)?
Answer: Its increased diuresis is 35%.

Question: And the increased diuresis (Rats [1]; single dose, average)?
Answer: The increased diuresis was 10%.

Question: And the diuresis (Rats [1]; treated orally for 8 consecutive days, fig. 13)?
Answer: Its diuresis is “definite increase in diuresis”.

Question: What about the Ames test (Salmonella Typhimurium) of the same compound?
Answer: Its Ames test is “absence of amtolmetin guacyl-related damage”.

Question: And the “time at which the effect is already evaluable” value (post-operative pain; following administration)?
Answer: The value was 30 '.

Question: And the antalgic effect (post-operative pain; post-operative pain)?
Answer: Its antalgic effect is “statistically significant”.

Question: What about the “time the effect is maintained” value (post-operative pain; post-operative pain) of the same compound?
Answer: Its value is 6 h.

Question: And the “time to peak effect” value (post-operative pain; post-operative pain)?
Answer: Its value is 2 h.

Question: What about the “fertility, embriotoxicity and teratogenicity” value (rabbit) of the same compound?
Answer: Its value is “safety”.

Question: What about the “increase in bicarbonate production” value [2] of the same compound?
Answer: Its value is 67%.

Question: What about the “Evaluation of antiphlogistic activity” value [3] of the same compound?
Answer: The value was “In this indication no significant differences were noted between amtolmetin guacyl and the reference compounds”.

Question: What about the “inhibition of COX2” value (COX2 (cyclooxygenase 2)) of the same compound?
Answer: The value was “inhibition”.

Question: And the gastroprotective effect (gastric mucosa)?
Answer: The gastroprotective effect was “drops out”.

Question: What about the “acute toxicity, tolerability” value (Acute toxicity studies) of the same compound?
Answer: Its value is “excellent drug tolerability”.

Question: And the duration of effect [4]?
Answer: The duration of effect was 6 h.

Question: What about the latency time [4] of the same compound?
Answer: Its latency time is 20 min.

Question: What about the “time to reach peak effect” value [4] of the same compound?
Answer: The value was 1 h.

Question: And the “Exudate volume” value (Rats [5]; 25mg/kg orally 1 hour prior to and 1 hour post induction)?
Answer: The value was 0.84 ± 0.09 mL.

Question: And the decrease exudate volume (Rats [5]; 25mg/kg)?
Answer: The decrease exudate volume was 11%.

Question: And the “Exudate volume” value (Rats [5]; 50mg/kg orally 1 hour prior to and 1 hour post induction)?
Answer: Its value is 0.74 ± 0.06 mL.

Question: And the decrease exudate volume (Rats [5]; 50mg/kg)?
Answer: The decrease exudate volume was 21%.

Question: And the “Exudate volume” value (Rats [5]; 100mg/kg orally 1 hour prior to and 1 hour post induction)?
Answer: Its value is 0.53 ± 0.05 mL.

Question: And the decrease exudate volume (Rats [5]; 100mg/kg)?
Answer: Its decrease exudate volume is 44%.
